# Experimental data as given in EPA's ToxRefDB 2.
# Key:
# dog [1] = conditions: Subchronic oral toxicity in nonrodent, beagle, Capsule, dose end: 90 day, group: systemic
# mouse [2] = conditions: Carcinogenicity, cd1, Oral, Feed, dose end: 80 week, group: systemic
# mouse [3] = conditions: Subchronic oral toxicity in rodents, cd1, Feed, dose end: 90 day, group: systemic
# rat [4] = conditions: Subchronic oral toxicity in rodents, fischer, [Not Specified], dose end: 90 day, group: systemic
# rat [5] = conditions: Prenatal developmental toxicity study, sprague dawley, Oral, Gavage/Intubation, dose end: 17 GD
# dog [6] = conditions: Chronic toxicity, beagle, Oral, Capsule, dose end: 52 week, group: systemic
# rat [7] = conditions: Combined chronic toxicity/carcinogenicity, fischer, Oral, Feed, dose end: 104 week, group: systemic
# rabbit [8] = conditions: Prenatal developmental toxicity study, new zealand white, Oral, Gavage/Intubation, dose end: 18 GD
# dog [9] = conditions: Subchronic oral toxicity in nonrodent, beagle, Gavage/Intubation, dose end: 90 day, group: systemic, systemic / in life observation / clinical signs / defecation (diarrhea) + systemic / in life observation / clinical signs / motor activity…
# rat [10] = conditions: Prenatal developmental toxicity study, sprague dawley, Oral, Gavage/Intubation, dose end: 15 GD
# rat [11] = conditions: Multigenerational reproductive toxicity study, sprague dawley, Oral, Feed, dose end: 2 generation
# dog [12] = conditions: Chronic toxicity, beagle, Oral, Gavage/Intubation, dose end: 12 month, group: systemic
# rat [13] = conditions: Combined chronic toxicity/carcinogenicity, sprague dawley, Oral, Feed, dose end: 104 week, group: systemic
# rat [14] = conditions: Subchronic oral toxicity in rodents, sprague dawley, Feed, dose end: 90 day, group: systemic
# mouse [15] = conditions: Carcinogenicity, cd1, Oral, Feed, dose end: 80 week, group: systemic; remark: listed apart in the source
# rabbit [16] = conditions: Prenatal developmental toxicity study, new zealand white, Oral, Gavage/Intubation, dose end: 19 GD
# mouse [17] = conditions: Subchronic oral toxicity in rodents, cd1, Feed, dose end: 90 day, group: systemic, systemic / in life observation / body weight / body weight gain + systemic / in life observation / food consumption / food consumption + …
# [18] = systemic / in life observation / body weight / body weight gain + systemic / in life observation / food consumption / food efficiency
# [19] = systemic / in life observation / body weight / body weight gain + systemic / in life observation / food consumption / food efficiency + …
# [20] = systemic / clinical chemistry / alanine aminotransferase (alt/sgpt) / alanine aminotransferase (alt/sgpt) + systemic / clinical chemistry / …
# [21] = systemic / clinical chemistry / albumin / albumin + systemic / hematology / eosinophils / eosinophils + systemic / hematology / neutrophils…
# [22] = systemic / hematology / eosinophils / eosinophils + systemic / hematology / neutrophils / neutrophils + systemic / organ weight / liver / …
# [23] = systemic / hematology / blood clotting / blood clotting - activated partial thromboplastin time + systemic / hematology / blood clotting / …
# [24] = group: developmental, developmental / developmental malformation / bone / misshapen + developmental / developmental malformation / bone / supernumerary + …
# [25] = group: maternal, systemic / in life observation / clinical signs / general pallor + systemic / in life observation / clinical signs / piloerection + systemic…
# [26] = systemic / pathology gross / gallbladder / discolored + systemic / pathology microscopic / liver / hemosiderin laden macrophages
# [27] = systemic / urinalysis / appearance and color / appearance and color + systemic / pathology microscopic / pancreas / proliferation
# [28] = group: developmental, developmental / developmental malformation / bone / full supernumerary
# [29] = group: maternal, reproductive / reproductive performance / resorptions / resorptions + systemic / in life observation / body weight / body weight gain + …
# [30] = group: developmental, systemic / in life observation / body weight / fetal weight + systemic / in life observation / body weight / litter weight
# [31] = group: maternal, systemic / in life observation / body weight / body weight + systemic / in life observation / body weight / body weight gain + systemic / in…
# [32] = group: offspring, systemic / in life observation / body weight / offspring (pup) weight + systemic / in life observation / body weight / offspring (pup) …
# [33] = group: parental, systemic / in life observation / body weight / body weight
# [34] = systemic / hematology / blood clotting / blood clotting - thromboplastin time + systemic / in life observation / body weight / body weight …
# [35] = systemic / pathology microscopic / thyroid gland / adenoma + systemic / clinical chemistry / cholesterol / cholesterol + systemic / clinical…
# [36] = systemic / in life observation / body weight / body weight + systemic / in life observation / body weight / body weight gain + systemic / in…
# [37] = systemic / in life observation / body weight / body weight gain + systemic / organ weight / liver / relative to body weight
# [38] = systemic / pathology gross / urinary bladder / distended
# [39] = systemic / pathology gross / urinary bladder / distended + systemic / hematology / lymphocyte / lymphocyte + systemic / hematology / …
# [40] = group: developmental, developmental / developmental malformation / bone / full supernumerary + developmental / developmental malformation / bone / incomplete …
compound,measurement,setting,value
CCCCCCCCCCCCC1=C(OC(C)=O)C(=O)c2ccccc2C1=O [Acequinocyl],LOAEL,dog [1]; [18],40 mg/kg/day
same,NOAEL,dog [1]; [18],< 40 mg/kg/day
same,LEL,dog [1]; [19],40 mg/kg/day
same,NEL,dog [1]; [19],< 40 mg/kg/day
same,LEL,mouse [2]; [20],2.7 mg/kg/day
same,NEL,mouse [2]; [20],< 2.7 mg/kg/day
same,NOAEL,mouse [2]; [20],7 mg/kg/day
same,LOAEL,mouse [2]; systemic / pathology microscopic / liver / fatty change + systemic / pathology microscopic / liver / vacuolization,20.3 mg/kg/day
same,LOAEL,mouse [3]; [21],81 mg/kg/day
same,NOAEL,mouse [3]; [21],16 mg/kg/day
same,LEL,mouse [3]; [22],16 mg/kg/day
same,NEL,mouse [3]; [22],< 16 mg/kg/day
same,LEL,rat [4]; systemic / clinical chemistry / gamma glutamyl transpeptides (gtp) / gamma glutamyl transpeptides (gtp) + systemic / urinalysis / appearance…,30.4 mg/kg/day
same,LOAEL,rat [4]; [23],120 mg/kg/day
same,NEL,rat [4]; [23],7.6 mg/kg/day
same,NOAEL,rat [4]; [23],30.4 mg/kg/day
same,LEL,rat [5]; [24],750 mg/kg/day
same,LOAEL,rat [5]; [24],750 mg/kg/day
same,NEL,rat [5]; [24],500 mg/kg/day
same,NOAEL,rat [5]; [24],500 mg/kg/day
same,LEL,rat [5]; [25],500 mg/kg/day
same,LOAEL,rat [5]; [25],500 mg/kg/day
same,NEL,rat [5]; [25],150 mg/kg/day
same,NOAEL,rat [5]; [25],150 mg/kg/day
same,LOAEL,dog [6]; systemic / hematology / platelet / platelet + systemic / hematology / reticulocyte / reticulocyte,20 mg/kg/day
same,NOAEL,dog [6]; systemic / hematology / platelet / platelet + systemic / hematology / reticulocyte / reticulocyte + systemic / clinical chemistry / albumin…,5 mg/kg/day
same,LEL,dog [6]; [26],5 mg/kg/day
same,NEL,dog [6]; [26],< 5 mg/kg/day
same,LOAEL,rat [7]; systemic / pathology gross / eye / enlarged,9.02 mg/kg/day
same,NOAEL,rat [7]; systemic / pathology gross / eye / enlarged + systemic / in life observation / body weight / body weight + systemic / in life observation / …,2.25 mg/kg/day
same,LEL,rat [7]; [27],2.92 mg/kg/day
same,NEL,rat [7]; [27],< 2.92 mg/kg/day
same,LEL,rabbit [8]; [28],120 mg/kg/day
same,LOAEL,rabbit [8]; [28],120 mg/kg/day
same,NEL,rabbit [8]; [28],60 mg/kg/day
same,NOAEL,rabbit [8]; [28],60 mg/kg/day
same,LEL,rabbit [8]; [29],120 mg/kg/day
same,LOAEL,rabbit [8]; [29],120 mg/kg/day
same,NEL,rabbit [8]; [29],60 mg/kg/day
same,NOAEL,rabbit [8]; [29],60 mg/kg/day
Cc1cc(C)nc(Nc2ccccc2)n1 [Pyrimethanil],LEL,dog [9],800 mg/kg/day
same,LOAEL,dog [9],800 mg/kg/day
same,NEL,dog [9],80 mg/kg/day
same,NOAEL,dog [9],80 mg/kg/day
same,LEL,rat [10]; [30],1000 mg/kg/day
same,LOAEL,rat [10]; [30],1000 mg/kg/day
same,NEL,rat [10]; [30],85 mg/kg/day
same,NOAEL,rat [10]; [30],85 mg/kg/day
same,LOAEL,"rat [10]; group: maternal, systemic / in life observation / body weight / body weight + systemic / in life observation / body weight / body weight gain",1000 mg/kg/day
same,LEL,rat [10]; [31],1000 mg/kg/day
same,NEL,rat [10]; [31],85 mg/kg/day
same,NOAEL,rat [10]; [31],85 mg/kg/day
same,LOAEL,"rat [11]; group: offspring, systemic / in life observation / body weight / offspring (pup) weight",294 mg/kg/day
same,LEL,rat [11]; [32],294 mg/kg/day
same,NEL,rat [11]; [32],23.1 mg/kg/day
same,NOAEL,rat [11]; [32],23.1 mg/kg/day
same,LEL,rat [11]; [33],1.9 mg/kg/day
same,NEL,rat [11]; [33],< 1.9 mg/kg/day
same,LOAEL,"rat [11]; group: parental, systemic / in life observation / body weight / body weight + systemic / in life observation / body weight / body weight gain",294 mg/kg/day
same,NOAEL,"rat [11]; group: parental, systemic / in life observation / body weight / body weight + systemic / in life observation / body weight / body weight gain + systemic / in…",23.1 mg/kg/day
same,NEL,dog [12]; systemic / hematology / blood clotting / blood clotting - thromboplastin time + systemic / hematology / neutrophils / neutrophils + systemic…,2 mg/kg/day
same,LOAEL,dog [12]; [34],250 mg/kg/day
same,NOAEL,dog [12]; [34],30 mg/kg/day
same,LEL,dog [12]; systemic / in life observation / clinical signs / vomitting,30 mg/kg/day
same,LEL,rat [13]; systemic / clinical chemistry / gamma glutamyl transferase (ggt) / gamma glutamyl transferase (ggt) + systemic / organ weight / liver / …,17 mg/kg/day
same,LOAEL,rat [13]; [35],221 mg/kg/day
same,NEL,rat [13]; [35],1.3 mg/kg/day
same,NOAEL,rat [13]; [35],17 mg/kg/day
same,LOAEL,rat [14]; [36],529 mg/kg/day
same,NOAEL,rat [14]; [36],54.5 mg/kg/day
same,LEL,rat [14]; [37],6.8 mg/kg/day
same,NEL,rat [14]; [37],< 6.8 mg/kg/day
same,LEL,mouse [15]; [38],2 mg/kg/day
same,NEL,mouse [15]; [38],< 2 mg/kg/day
same,LOAEL,mouse [15]; [39],> 211 mg/kg/day
same,NOAEL,mouse [15]; [39],≥ 211 mg/kg/day
same,LEL,rabbit [16]; [40],300 mg/kg/day
same,LOAEL,rabbit [16]; [40],300 mg/kg/day
same,NEL,rabbit [16]; [40],45 mg/kg/day
same,NOAEL,rabbit [16]; [40],45 mg/kg/day
same,LOAEL,rabbit [16]; [31],300 mg/kg/day
same,NEL,rabbit [16]; [31],7 mg/kg/day
same,NOAEL,rabbit [16]; [31],45 mg/kg/day
same,LEL,"rabbit [16]; group: maternal, systemic / in life observation / clinical signs / defecation",45 mg/kg/day
same,LEL,mouse [17],1860 mg/kg/day
same,LOAEL,mouse [17],1860 mg/kg/day
same,NEL,mouse [17],139 mg/kg/day
same,NOAEL,mouse [17],139 mg/kg/day
